Measured values taken from patent US20260070922A1, “PYRAZOLE AND IMIDAZOLE DERIVATIVES AS DUAL OREXIN AND KAPPA-OPIOID RECEPTORS MODULATORS COMPOSITION, METHODS FOR TREATING NEUROLOGICAL AND PSYCHIATRIC DISORDERS” (HAGER BIOSCIENCES, LLC, priority 2022, published 2026).
pIC50: −log10 of the molar value.

How the values were obtained:
[1] = molecular target: T1, Orexin type 1 (OX1R) receptor (Homo sapiens, UniProt O43613); assay: In vitro orexin antagonism assay: intracellular calcium measurement (FLIPR), orexin-A 3 nM as agonist; format: cell-based; conditions: for inhibition at 1 µM: read-out: OX1R, % Inh. @ 1 uM; for pIC50: first value of IC50/Kb cell; for Kb: second value of IC50/Kb cell
T1 construct: expressed in transfected cells; host or cells: CHO cells (G418 selection)
T1 sequence (O43613 1-425): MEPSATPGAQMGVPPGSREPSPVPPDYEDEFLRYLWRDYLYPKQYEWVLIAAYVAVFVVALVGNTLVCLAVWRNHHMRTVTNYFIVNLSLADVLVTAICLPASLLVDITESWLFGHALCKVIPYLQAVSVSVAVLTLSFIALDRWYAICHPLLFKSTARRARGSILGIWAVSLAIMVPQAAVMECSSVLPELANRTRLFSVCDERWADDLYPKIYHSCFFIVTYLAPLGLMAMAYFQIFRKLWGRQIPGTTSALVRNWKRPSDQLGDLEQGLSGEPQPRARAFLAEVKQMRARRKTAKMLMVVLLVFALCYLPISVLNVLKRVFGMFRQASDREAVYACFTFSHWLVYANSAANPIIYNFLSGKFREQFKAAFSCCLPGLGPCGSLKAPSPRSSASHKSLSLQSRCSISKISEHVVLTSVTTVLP
Protocol: (§1) In Vitro Orexin Antagonism Measurement Assay: Intracellular Calcium Measurements:
(§2) Chinese hamster ovary (CHO) cells expressing the human […] and the human orexin-2 receptor, respectively, are grown in culture medium (Ham F-12 with L-Glutamine) containing 300 μg/mL G418, 100 U/mL penicillin, 100 μg/mL streptomycin and 10% heat inactivated fetal calf serum (FCS). The cells are seeded at 20,000 cells/well into 384-well black clear bottom sterile plates (Greiner). The seeded plates are incubated overnight at 37° C. in 5% 002. Human orexin-A as an agonist is prepared as 1 mM stock solution in MeOH: water (1:1), diluted in HBSS containing 0.1% bovine serum albumin (BSA), NaHCO3: 0.375 g/L and 20 mM HEPES for use in the assay at a final concentration of 3 nM.
(§3) Antagonists are prepared as 10 mM stock solution in DMSO, then diluted in 384-well plates using DMSO followed by a transfer of the dilutions into in HBSS containing 0.1% bovine serum albumin (BSA), NaHCO3: 0.375 g/L and 20 mM HEPES. On the day of the assay, 50 μL of staining buffer (HBSS containing 1% FCS, 20 mM HEPES, NaHCO3: 0.375 g/L, 5 mM probenecid (Sigma) and 3 μM of the fluorescent calcium indicator fluo-4 AM (1 mM stock solution in DMSO, containing 10% pluronic) is added to each well. The 384-well cell-plates are incubated for 50 min at 37° C. in 5% CO2 followed by equilibration at RT for 30 min before measurement.
(§4) Within the Fluorescent Imaging Plate Reader (FLIPR Tetra, Molecular Devices), antagonists are added to the plate in a volume of 10 μL/well, incubated for 120 min and finally 10 μL/well of agonist is added. Fluorescence is measured for each well at 1 second intervals, and the height of each fluorescence peak is compared to the height of the fluorescence peak induced by 3 nM orexin-A with vehicle in place of antagonist. The IC50 value (the concentration of compound needed to inhibit 50% of the agonistic response) is determined and may be normalized using the obtained IC50 value of an on-plate reference compound. Optimized conditions were achieved by adjustment of pipetting speed and cell splitting regime. The calculated IC50values may fluctuate depending on the daily cellular assay performance. Fluctuations of this kind are known to those skilled in the art.

[2] = molecular target: T2, human orexin-2 receptor (OX2R) (Homo sapiens, UniProt O43614); assay: as above; format: cell-based; conditions: for inhibition at 1 µM: read-out: OX2R, % Inh. @ 1 uM; for pIC50: first value of IC50/Kb cell; for Kb: second value of IC50/Kb cell
T2 construct: expressed in transfected cells; host or cells: CHO cells (G418 selection)
T2 sequence (O43614 1-444): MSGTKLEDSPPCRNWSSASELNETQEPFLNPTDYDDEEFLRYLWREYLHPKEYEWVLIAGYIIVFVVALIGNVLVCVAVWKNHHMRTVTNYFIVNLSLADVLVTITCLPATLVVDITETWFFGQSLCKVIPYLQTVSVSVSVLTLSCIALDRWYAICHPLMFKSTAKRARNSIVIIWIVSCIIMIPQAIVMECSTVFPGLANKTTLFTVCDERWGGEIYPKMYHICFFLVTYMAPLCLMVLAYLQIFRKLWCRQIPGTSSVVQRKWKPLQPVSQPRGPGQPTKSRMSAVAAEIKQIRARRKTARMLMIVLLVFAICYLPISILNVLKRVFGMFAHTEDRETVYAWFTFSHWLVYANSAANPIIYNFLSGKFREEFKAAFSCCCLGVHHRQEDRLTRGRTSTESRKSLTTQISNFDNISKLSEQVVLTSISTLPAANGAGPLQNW
Protocol: Antagonistic activities on both orexin receptors have been measured for each example compound using the following procedure:
as §1, §2, §3
as §4, with “art. In the case where IC50values have been determined several times for the same compound, the geometric mean has been given.” for “art.”

Row | SMILES | inhibition at 1 µM [1] | inhibition at 1 µM [2] | pIC50 [2] | Kb [2] | pIC50 [1] | Kb [1] | OX1R, % Inh. @ 1 uM ([1]; @ 1 uM) | OX2R, % Inh. @ 1 uM ([2]; @ 1 uM)
1 | O=C(c1c(-c2ccccc2)nn2c1COCC2)N1CCC[C@H]1Cn1ccc(-c2ccccn2)n1 [Example 76] | 46% | 25% |  |  |  |  |  | 
2 | O=C(c1c(-c2ccccc2)nn2c1COCC2)N1CCC[C@H]1Cn1cc(-c2ccccn2)cn1 [Example 77] | 22% | 23% |  |  |  |  |  | 
3 | O=C(c1c(-c2ccccc2)nc2cc(C(F)(F)F)ccn12)N1CCC[C@H]1Cn1cc(-c2ccccn2)cn1 [Example 79] | 43% | 62% | 7.11 | 13 nM |  |  |  | 
4 | O=C(c1c(-c2ccccc2)nc2cc(C(F)(F)F)ccn12)N1CCC[C@H]1Cn1cc(-c2ccc(F)cn2)cn1 [Example 81] | 58% | 63% | 7.15 | 12 nM | 6.40 | 84 nM |  | 
5 | O=C(c1c(-c2ccccc2F)nn2c1COCC2)N1CCC[C@H]1Cn1cc(-c2ccc(F)cn2)cn1 [Example 83] | 17% | 39% |  |  |  |  |  | 
6 | O=C(c1c(-c2ccccc2)nc2ccc(F)cn12)N1CCC[C@H]1Cn1cc(-c2ccc(F)cn2)cn1 [Example 84] | 32% | 58% | 6.40 | 70 nM |  |  |  | 
7 | O=C(c1c(-c2ccccc2)nn2c1COCC2)N1CCC[C@H]1Cn1cc(-c2ccc(F)cn2)cn1 [Example 85] | 19% | 35% |  |  |  |  |  | 
8 | O=C(c1c(-c2ccccc2)nn2c1COCC2)N1CCC[C@H]1Cn1cc(-c2ccccc2)cn1 [Example 86] | 56% | 42% |  |  | 5.89 | 280 nM |  | 
9 | O=C(c1c(-c2ccccc2F)nn2c1COCC2)N1CCC[C@H]1Cn1ccc(-c2ccc(F)cn2)n1 [Example 91] | 58% | 38% |  |  | 6.27 | 110 nM |  | 
10 | O=C(c1c(-c2ccccc2)nn2c1COCC2)N1CCC[C@H]1Cn1ccc(-c2ccc(F)cn2)n1 [Example 93] | 41% | 36% |  |  |  |  |  | 
11 | O=C(c1c(-c2ccccc2F)nn2c1COCC2)N1[C@H](Cn2ccc(-c3ccc(F)cc3)n2)C[C@@H]2C[C@@H]21 [Example 96] | 44% | 22% |  |  |  |  |  | 
12 | O=C(c1c(-c2ccccc2)nc2cc(C(F)(F)F)ccn12)N1[C@H](Cn2ccc(-c3ccc(F)cc3)n2)C[C@@H]2C[C@@H]21 [Example 98] | 48% | 35% |  |  |  |  |  | 
13 | O=C(c1c(-c2ccccc2F)nn2ccccc12)N1CC[C@H]1Cn1ccc(-c2ccc(F)cc2)n1 [Example 99] | 59% | 61% | 6.57 | 46 nM | 6.36 | 92 nM |  | 
14 | O=C(c1c(-c2ccccc2F)nn2c1COCC2)N1CC[C@H]1Cn1ccc(-c2ccc(F)cc2)n1 [Example 100] | -2% | 19% |  |  |  |  |  | 
15 | O=C(c1c(-c2ccccc2)nc2ccc(F)cn12)N1CC[C@H]1Cn1ccc(-c2ccc(F)cc2)n1 [Example 101] | 25% | 47% |  |  |  |  |  | 
16 | O=C(c1c(-c2ccccc2)nc2cc(C(F)(F)F)ccn12)N1CC[C@H]1Cn1ccc(-c2ccc(F)cc2)n1 [Example 102] | 31% | 60% | 6.18 | 110 nM |  |  |  | 

Row | SMILES | inhibition at 1 µM [1] | inhibition at 1 µM [2] | pIC50 [2] | Kb [2] | pIC50 [1] | Kb [1] | OX1R, % Inh. @ 1 uM ([1]; @ 1 uM) | OX2R, % Inh. @ 1 uM ([2]; @ 1 uM)
17 | O=C(c1c(-c2ccccc2F)nn2ccccc12)N1CC[C@H]1Cn1ccc(-c2ccc(F)cn2)n1 [Example 103] | 24% | 43% |  |  |  |  |  | 
18 | O=C(c1c(-c2ccccc2F)nn2c1COCC2)N1CC[C@H]1Cn1ccc(-c2ccc(F)cn2)n1 [Example 104] | 8% | 14% |  |  |  |  |  | 
19 | O=C(c1c(-c2ccccc2)nc2ccc(F)cn12)N1CC[C@H]1Cn1ccc(-c2ccc(F)cn2)n1 [Example 105] | 5% | 29% |  |  |  |  |  | 
20 | O=C(c1c(-c2ccccc2)nc2cc(C(F)(F)F)ccn12)N1CC[C@H]1Cn1ccc(-c2ccc(F)cn2)n1 [Example 106] | 19% | 39% |  |  |  |  |  | 
21 | O=C(c1c(-c2ccccc2F)nn2c1COCC2)N1[C@H](Cn2ccc(-c3ccc(F)cn3)n2)C[C@@H]2C[C@@H]21 [Example 108] | 23% | 17% |  |  |  |  |  | 
22 | O=C(c1c(-c2ccccc2)nc2ccc(F)cn12)N1[C@H](Cn2ccc(-c3ccc(F)cn3)n2)C[C@@H]2C[C@@H]21 [Example 109] | 45% | 32% |  |  |  |  |  | 
23 | O=C(c1c(-c2ccccc2)nc2cc(C(F)(F)F)ccn12)N1[C@H](Cn2ccc(-c3ccc(F)cn3)n2)C[C@@H]2C[C@@H]21 [Example 110] | 69% | 42% |  |  | 6.55 | 60 nM |  | 
24 | O=C(c1c(-c2ccccc2)nn2c1COCC2)N1CCOC[C@H]1COc1ccc(C(F)(F)F)cn1 [Example 113] | 12% | 8% |  |  |  |  |  | 
25 | O=C(c1c(-c2ccccc2)nn2ccccc12)N1CCOC[C@H]1COc1ccc(C(F)(F)F)cn1 [Example 114] | 14% | 6% |  |  |  |  |  | 
26 | O=C(c1c(-c2ccccc2)nn2c1COCC2)N1CCC[C@H]1Cc1nc(-c2ccc(F)cn2)no1 [Example 116] | 10% | 19% |  |  |  |  |  | 
27 | O=C(c1c(-c2ccccc2)nc2ccc(F)cn12)N1CCC[C@H]1Cc1nc(-c2ccc(F)cn2)no1 [Example 121] | 44% | 45% |  |  |  |  |  | 
28 | O=C(c1nc2ccccn2c1-c1ccccc1)N1CCC[C@H]1Cn1ccc(-c2ccc(F)cn2)n1 [Example 123] |  |  |  |  |  |  | 100% | 42%
29 | O=C(c1nc2ccccn2c1-c1ccccc1)N1CCC[C@H]1COc1ccc(C(F)(F)F)cn1 [Example 124] | 100% | 36% |  |  | 8.30 | 1 nM |  | 
30 | O=C(c1nn2c(c1-c1ccccc1)OCCC2)N1CCC[C@H]1COc1ccc(C(F)(F)F)cn1 [Example 142] | 100% | 42% |  |  | 8.22 | 1 nM |  | 
31 | O=C(c1nn2c(c1-c1ccccc1)COCC2)N1C2CCC1(COc1ccc(C(F)(F)F)cn1)CC2 [Example 159] | 86% | 15% |  |  | 7.32 | 10 nM |  | 
32 | O=C(c1nc2ccccn2c1-c1ccccc1)N1C2CCC1(COc1ccc(C(F)(F)F)cn1)CC2 [Example 160] | 98% | 2% |  |  | 7.62 | 5 nM |  | 
